# Test results taken from paper PMC4340794, “Pharmacokinetic Study of 14-(3-Methylbenzyl)matrine and 14-(4-Methylbenzyl)matrine in Rat Plasma Using Liquid Chromatography-Tandem Mass Spectrometry” (PLoS ONE, 2015).
# Legend:
# [1] = PK study using rats, oral administration, plasma levels by HPLC-MS/MS; type: in vivo, Sprague–Dawley rats; conditions: oral (gavage) 25 mg/kg, mean ± SD; for Tmax / AUC(0-t) / Cmax / half-life / k el / MRT last: Sprague-Dawley; for Tmax / AUC(0-t): rat, plasma, po, 25 mg/kg; for Cmax / half-life / k el / MRT last / CL / V: rat plasma; for k el: read-out: Ke (converted); for MRT last: read-out: MRT0−t (converted)
# Procedure: HPLC analysis was performed using the Dionex UltiMate 3000 HPLC equipped with a binary pump, an on-line degasser, an auto-sampler and a column temperature controller. The chromatographic separations were performed using a Hypersil GOLD C18 column (100 mm × 2.1 mm, 1.9 μm particle size) protected by a C18 guard column (10 mm × 2.1 mm, 5 μm) at 40°C. The mobile phase consisted of acetonitrile:0.1% formic acid (65:35, v/v). The flow rate was set at 0.2 ml/min. Aliquots of 2 μl were injected into the HPLC system for analysis.
# MS analysis was performed using a Thermo Scientific TSQ Quantum Access MAX triple-stage quadrupole mass spectrometer equipped with an electrospray ionization (ESI) source in the positive-ionization mode. The typical ion source parameters were as follows: spray voltage: 3500 V; sheath gas pressure (N2): 20 units; auxiliary gas pressure (N2): 5 units; ion transfer tube temperature: 350°C; collision gas (Ar): 1.5 mTorr; Q1/Q3 peak resolution: 0.7 Da; and scan width: 0.002 Da. The samples were analyzed via selective-reaction monitoring (SRM) of the ion pairs at m/z 343 → 148 for 3MBM, m/z 343 → 148 for 4MBM, or m/z 166 → 133 for the IS. The scan dwell time was set at 0.1 s for every channel. All data collected in the centroid mode were acquired and processed using Xcalibur 2.2 software (Thermo Fisher Scientific, Inc., USA).
# Each plasma sample (100 μl) was mixed with 20 μl of the working IS solution in a 1.5-ml labeled microcentrifuge tube and was vortexed for 5 s. Then, 1000 μl of isopropanol:ethyl acetate (v/v, 25:75) was added, and each sample was vortexed for 1 min. Each tube was subsequently centrifuged at 12,000 × g for 10 min. The organic layer was transferred to another tube and evaporated to dryness at ambient temperature under a gentle stream of nitrogen. The residue was reconstituted in 100 μl of the mobile phase, and 2 μl of each sample was injected into the HPLC–MS/MS system for analysis.
# Aqueous solutions of 3MBM and 4MBM were separately administered to 12 rats via gavage at 25 mg/kg (2.5 mg/ml aqueous solutions), which was equivalent to the dose administered to mice in our previous study. Serial blood samples (0.5 ml) were obtained at 0, 15, 30, 45, 60, 90, 120, 150, 240, 600, 960, and 1440 min after oral administration. All samples were placed in heparinized tubes. After centrifugation at 12,000 rpm and 4°C for 10 min, the plasma was collected and frozen at −20°C until analysis. The PK parameters were estimated according to a non-compartmental model using the TopFit 2.0 software package (Thomae, Germany). The elimination half-life (t1/2) was 0.693/ke, where ke, the elimination rate constant, was calculated by fitting the mean data at four terminal points of the plasma concentration profile to a log-linear regression equation using the least-squares method. The maximum drug plasma concentration (Cmax) and time to Cmax (Tmax) were directly determined from the observed data. The area under the plasma concentration–time curve from zero to the time of the final measurable sample (AUC0−t) was calculated using the linear-trapezoidal rule.
# [2] = Stability of analytes in rat plasma samples (post-preparative, freeze–thaw, long-term cold storage); type: in vitro ADME; conditions: for Stability III R.E. / Stability III Concentration / Stability II R.E. / Stability II Concentration: plasma; for Stability III R.E. / Stability III Concentration: 60 days at -20° C; for Stability III Concentration / Stability II Concentration / Stability I Concentration: n = 6, mean ± SD; for Stability II R.E. / Stability II Concentration: three freeze-thaw cycles; for Stability I R.E. / Stability I Concentration: processed samples, auto-sampler 24 h
# Procedure: Selectivity was assessed by comparing the chromatograms of six different batches of blank rat plasma to the corresponding spiked rat plasma. Linearity was assessed via weighted (1/x^2) analysis of the six different calibration curves. Intra- and inter-day precision (the relative standard deviation, RSD) and accuracy (the relative error, RE) were determined by analyzing the low-, intermediate-, and high-concentration QC samples (n = 6) on three different days. The matrix effect was investigated by comparing the peak areas of the analytes in the post-extraction spiked blank plasma samples at low and high analyte concentrations to the corresponding standard solutions. The extraction yield was determined by comparing the mean peak areas of the six extracted samples at low, intermediate, and high QC concentrations to the mean peak areas of the spike-after-extraction samples. Stability was assessed by analyzing the replicates (n = 6) of the low, intermediate and high QC samples during the sample storage and processing procedures. Freeze–thaw stability was determined after three freeze–thaw cycles. Post-preparation stability was estimated by analyzing the QC samples after 24 h at 4°C. Six aliquots of the QC samples were stored at −20°C for 60 days to determine their long-term stability.
# hepatoma = test system: hepatoma; set-up: method as in earlier work; conditions: cited from earlier work; for tumor inhibition rate: previous pharmacological experiment
Tmax [1],AUC(0-t) ([1]; first AUC0-t line of Table 3),AUC(0-t) ([1]; second AUC0-t line of Table 3),Cmax [1],half-life [1],k el [1],MRT last [1],CL [1],V [1],Stability III R.E. ([2]; spike 5 ng/ml),Stability III Concentration ([2]; spike 5 ng/ml),Stability II Concentration ([2]; spike 5 ng/ml),Stability I R.E. ([2]; spike 5 ng/ml),Stability I Concentration ([2]; spike 5 ng/ml),Stability III R.E. ([2]; spike 800 ng/ml),Stability III Concentration ([2]; spike 800 ng/ml),Stability II R.E. ([2]; spike 800 ng/ml),Stability II Concentration ([2]; spike 800 ng/ml),Stability I R.E. ([2]; spike 800 ng/ml),Compound,tumor inhibition rate (hepatoma),other results
1.47 h,7210 ng·h/mL,7480 ng·h/mL,1050 ± 233 ng/mL,298 ± 35 min,3.92e-05 s⁻¹,7.4 h,59 ± 13 mL/min,25119 ± 5779 mL,-3.80%,4.81 ± 0.42 ng/mL,5.15 ± 0.35 ng/mL,-1.02%,4.94 ± 0.46 ng/mL,1.22%,809.8 ± 30.9 ng/mL,-1.82%,785.4 ± 46.8 ng/mL,-1.03%,"Cc1cccc(CC2CCC3C4CCCN5CCCC(CN3C2=O)C45)c1 (stereo not drawn) [3MBM, 14-(3-methylbenzyl)matrine]",61.83%,Stability II R.E. ([2]; spike 5 ng/ml): 2.87%; Stability I Concentration ([2]; spike 800 ng/ml): 791.7 ± 13.6 ng/mL; Stability III R.E. ([2]; spike 1600 ng/ml): 3.78%; Stability III Concentration ([2]; spike 1600 ng/ml): 1660 ± 63.9 ng/mL; Stability II R.E. ([2]; spike 1600 ng/ml): 2.46%; Stability II Concentration ([2]; spike 1600 ng/ml): 1639 ± 98.5 ng/mL; Stability I R.E. ([2]; spike 1600 ng/ml): -0.40%; Stability I Concentration ([2]; spike 1600 ng/ml): 1593 ± 39.9 ng/mL; anti-hepatoma activity in vivo (hepatoma; compared with cyclophosphamide): the same as those of the reference substances of cyclophosphamide
~1.58 h,7680 ng·h/mL,7920 ng·h/mL,992 ± 275 ng/mL,295 ± 22 min,3.94e-05 s⁻¹,7.67 h,59 ± 21 mL/min,24361 ± 6921 mL,2.60%,5.13 ± 0.37 ng/mL,4.98 ± 0.23 ng/mL,3.20%,5.16 ± 0.29 ng/mL,-1.58%,787.4 ± 24.1 ng/mL,-1.30%,789.6 ± 67.9 ng/mL,3.11%,"Cc1ccc(CC2CCC3C4CCCN5CCCC(CN3C2=O)C45)cc1 (stereo not drawn) [4MBM, 14-(4-methylbenzyl)matrine]",51.15%,Stability I Concentration ([2]; spike 800 ng/ml): 824.9 ± 37.2 ng/mL; Stability III R.E. ([2]; spike 1600 ng/ml): 2.23%; Stability III Concentration ([2]; spike 1600 ng/ml): 1636 ± 36.6 ng/mL; Stability II R.E. ([2]; spike 1600 ng/ml): -1.04%; Stability II Concentration ([2]; spike 1600 ng/ml): 1583 ± 99.2 ng/mL; Stability I R.E. ([2]; spike 1600 ng/ml): -1.42%; Stability I Concentration ([2]; spike 1600 ng/ml): 1577 ± 60.7 ng/mL
–,–,–,–,–,–,–,–,–,–,–,–,–,–,–,–,–,–,–,"O=C1CCC[C@@H]2[C@H]3CCCN4CCC[C@@H](CN12)[C@@H]34 [MT, Matrine]",39.69%,–
